Measured values published in PMC3499368, “Evolution of Minimal Specificity and Promiscuity in Steroid Hormone Receptors” (PLoS Genetics, 2012).
Like-named read-outs stand apart in the source and are kept apart here.

Assays:
Assay type in all cases: cell-based
[1] = tested on: AncSR1_Alt5; assay: luciferase reporter assay, alternative reconstruction AncSR1_Alt5; settings: Alt5, fold activation at 10^-6 M, Fig. S5C
Text: (§1) To determine the robustness of functional inferences to statistical uncertainty in the reconstruction of AncSR1 and AncSR2, we used two approaches. AncSR1 had too many ambiguously reconstructed sites to examine each such residue individually, so we computationally sampled from the posterior probability distribution of reconstructed amino acid states to generate a cloud of possible ancestral sequences, each harboring a large number of alternate states. Specifically, we generated 1,000,000 possible ancestral sequences by sampling from the posterior probability distribution of states at each site. […] We synthesized these five radically alternative ancestral reconstructions de novo and repeated the functional assays.
(§2) A) Distribution of posterior probabilities of 1 million protein sequences assembled by sampling amino acid states at each site from the posterior probability distribution for AncSR1 LBD. The ML reconstruction (AncSR1-ML) and the five alternative sequences with the highest posterior probability (Alt1-Alt5) in the 1 million samples are […]
(§3) The column height and error bars indicate the mean and SEM of three independent experiments, respectively. […]

[2] = tested on: AncSR2-LBD; assay: luciferase reporter gene assay, Gal4-DBD fusion of AncSR2-LBD in CHO-K1 cells, activation; settings: for EC50: AncSR2, representative dose activation curves (Fig. S4) and Table S5 sections c-i; for Ratio H1/H2 of EC50, preference for 17-acetyl vs. 17-hydroxy group / Ratio H2/H1 of EC50, preference for 17-acetyl vs. 17-hydroxy group: AncSR2, Table S5 section d, pairs H1/H2: 13/6, 17/8, 15/9, 16/10, 19/23; for Ratio H1/H2 of EC50, preference for 3-hydroxy vs. 3-keto group / Ratio H2/H1 of EC50, preference for 3-hydroxy vs. 3-keto group: AncSR2, Table S5 section e, pairs H1/H2: 18/17, 9/6, 15/13; for Ratio H1/H2 of EC50, preference for 19-H vs. 19-methyl group / Ratio H2/H1 of EC50, preference for 19-H vs. 19-methyl group: AncSR2, Table S5 section i, pairs H1/H2: 8/6, 17/13, 18/15
Text: To experimentally test these hypotheses, we synthesized cDNAs for the AncSR1 and AncSR2 LBD protein sequences, expressed them as Gal4-DBD fusion constructs, and characterized their sensitivity to hormones using luciferase reporter gene assays. […] It was unresponsive to a broad array of androgens, progestagens, and corticosteroids, as well as cholesterol (Figure 2A, Figure S3).
For AncSR2, we identified all plausible alternate reconstructions (those with posterior probability >0.20 excluding biochemically similar K/R, D/E, S/T, and I/L differences) and introduced each alternate state individually into the AncSR2 background using the Quikchange Mutagenesis kit (Stratagene), verified clones by sequencing, and repeated the activation assays with each version of AncSR2 (Figure S6). The ML AncSR2 sequence reconstructed on the ML tree had high baseline activation in the absence of ligand; this phenotype is almost certainly an artifact, because constitutive baseline activity is not present in any of AncSR2's extant descendants; it is well-established that some amino acid replacements can cause nuclear receptors to become constitutive by marginally stabilizing the active conformation in the absence of hormone. […] The “constitutive” Leu79 state is weakly supported on the ML tree (PP = 0.59), and has no support (PP = 0.00) on the phylogeny that is most parsimonious in terms of gene duplications and losses; in contrast, the “non-constitutive” state Met79 has PP = 0.41 on the ML tree and PP = 1.00 on the rearranged gene duplication/loss tree (Figure S12, Table S8). The AncSR2 sequence used for all experiments reported in the text therefore contains state Met79. The other alternate reconstructions were then reintroduced into this AncSR2 sequence: none qualitatively changed the receptor's sensitivity to the various classes of steroid hormones, except for A171V, which conferred constitutive activity (Figure S6).

[3] = tested on: AncSR1-LBD; assay: luciferase reporter gene assay, Gal4-DBD fusion of AncSR1-LBD in CHO-K1 cells, activation; settings: for activation (in words): AncSR1-ML, fold activation at 10^-6 M, Fig. S5C
Text: To experimentally test these hypotheses, we synthesized cDNAs for the AncSR1 and AncSR2 LBD protein sequences, expressed them as Gal4-DBD fusion constructs, and characterized their sensitivity to hormones using luciferase reporter gene assays.

[4] = tested on: AncSR1_Alt3; assay: luciferase reporter assay, alternative reconstruction AncSR1_Alt3; settings: Alt3, fold activation at 10^-6 M, Fig. S5C
Text: as §1, §2, §3

[5] = tested on: AncSR1_Alt2; assay: luciferase reporter assay, alternative reconstruction AncSR1_Alt2; settings: Alt2, fold activation at 10^-6 M, Fig. S5C
Text: as §1, §2, §3

[6] = tested on: AncSR1_Alt1; assay: luciferase reporter assay, alternative reconstruction AncSR1_Alt1; settings: Alt1, fold activation at 10^-6 M, Fig. S5C
Text: as §1, §2, §3

[7] = tested on: AncSR1_Alt4; assay: luciferase reporter assay, alternative reconstruction AncSR1_Alt4; settings: Alt4, fold activation at 10^-6 M, Fig. S5C
Text: as §1, §2, §3

[8] = listed as given under Hormone 1
[9] = AncSR2, Table S5 section h, pairs H1/H2: 3/4, 6/7, listed as given under Hormone 1
[10] = AncSR1, Table S5 section b, pairs H1/H2: 18/19, 22/20, 8/23, listed as given under Hormone 1

CC(=O)[C@H]1CC[C@H]2[C@@H]3CCC4=CC(=O)CC[C@]4(C)[C@H]3CC[C@]12C [progesterone]
activation (in words) [1]: none are activated | EC50 ([2]; read-out: EC50): 0.0055 µM | activation (in words) [3]: none are activated | activation (in words) [4]: none are activated | activation (in words) [5]: none are activated | activation (in words) [6]: none are activated | activation (in words) [7]: none are activated

C[C@]12CCC(=O)C[C@@H]1CC[C@@H]1[C@@H]2CC[C@]2(C)[C@@H](O)CC[C@@H]12 [dihydrotestosterone]
activation (in words) [1]: none are activated | EC50 [2]: 0.172 µM | activation (in words) [3]: none are activated | activation (in words) [4]: none are activated | activation (in words) [5]: none are activated | activation (in words) [6]: none are activated | activation (in words) [7]: none are activated

C[C@]12CC[C@H]3[C@@H](CCC4=CC(=O)CC[C@@]43C)[C@@H]1CC[C@@H]2O [testosterone]
activation (in words) [1]: none are activated | Ratio H1/H2 of EC50, preference for 17-acetyl vs. 17-hydroxy group [2, 8]: 21.09 | Ratio H2/H1 of EC50, preference for 17-acetyl vs. 17-hydroxy group [2, 8]: 0.05 | EC50 [2]: 0.116 µM | activation (in words) [3]: none are activated | activation (in words) [4]: none are activated | activation (in words) [5]: none are activated | activation (in words) [6]: none are activated | activation (in words) [7]: none are activated

CC(=O)C1CCC2C3CCC4=CC(O)CCC4(C)C3CCC12C (centres unmarked) [4-pregnenolone]
Ratio H1/H2 of EC50, preference for 3-hydroxy vs. 3-keto group [2, 8]: 0.40 | Ratio H2/H1 of EC50, preference for 3-hydroxy vs. 3-keto group [2, 8]: 2.50 | EC50 [2]: 0.0022 µM

C[C@@H](O)[C@H]1CC[C@H]2[C@@H]3CCC4=CC(=O)CC[C@]4(C)[C@H]3CC[C@]12C [20β hydroxyprogesterone]
EC50 ([2]; read-out: EC50): 0.01 µM

CC12CCC3C4CCC(=O)C=C4CCC3C1CCC2O (centres unmarked) [19-nortestosterone]
Ratio H1/H2 of EC50, preference for 17-acetyl vs. 17-hydroxy group [2, 8]: 43.13 | Ratio H2/H1 of EC50, preference for 17-acetyl vs. 17-hydroxy group [2, 8]: 0.02 | Ratio H1/H2 of EC50, preference for 19-H vs. 19-methyl group [2, 8]: 0.59 | Ratio H2/H1 of EC50, preference for 19-H vs. 19-methyl group [2, 8]: 1.68 | EC50 [2]: 0.069 µM

C[C@]12CCC(=O)C=C1CC[C@@H]1[C@@H]2[C@@H](O)C[C@]2(C=O)[C@@H](C(=O)CO)CC[C@@H]12 [aldosterone]
EC50 ([2]; read-out: EC50): 0.0019 µM

C[C@]12C[C@H](O)[C@H]3[C@@H](CCC4=CC(=O)CC[C@@]43C)[C@@H]1CC[C@@H]2C(=O)CO [corticosterone]
Ratio H1/H2 of EC50, preference for 17a-H group vs. -OH group [2, 9]: 0.03 | Ratio H2/H1 of EC50, preference for 17a-H group vs. -OH group [2, 9]: 31.61 | EC50 ([2]; read-out: EC50): 0.00031 µM

CC(=O)[C@@]1(O)CC[C@H]2[C@@H]3CCC4=CC(=O)CC[C@]4(C)[C@H]3CC[C@@]21C [17α-hydroxyprogesterone]
EC50 ([2]; read-out: EC50): 0.019 µM

CC12CCC3C4CCC(O)C=C4CCC3C1CCC2O (centres unmarked) [bolandiol]
Ratio H1/H2 of EC50, preference for 3-hydroxy vs. 3-keto group [2, 8]: 0.29 | Ratio H2/H1 of EC50, preference for 3-hydroxy vs. 3-keto group [2, 8]: 3.45 | Ratio H1/H2 of EC50, preference for 19-H vs. 19-methyl group [2, 8]: 0.08 | Ratio H2/H1 of EC50, preference for 19-H vs. 19-methyl group [2, 8]: 13.10 | EC50 [2]: 0.02 µM | Ratio H1/H2 of EC50, preference for aromatized A-ring [3, 10]: 36.02 | Ratio H2/H1 of EC50, preference for aromatized A-ring [3, 10]: 0.03 | EC50 ([3]; AncSR1, representative dose activation curves (Fig. S3) and Table S5 section b): 1.77 µM

CC/C(=C(/CC)c1ccc(O)cc1)c1ccc(O)cc1 [Diethylstilbestrol]
activation of AncSR2 (in words) ([2]; luciferase reporter): not activated | activation of AncSR1 (in words) ([3]; luciferase reporter): activated
